Measured values: US6015560A, “Antibody recognizing endothelial cell ligand for leukocyte CR3” (priority 1995, dated 2000)

Columns and labels:
B. pertussis = conditions: in vivo; cited from earlier work
albumin = conditions: cited from earlier work
[1] = system: human umbilical vein endothelial cells; test: Adherence of neutrophils to cultured (TNF-stimulated) endothelial cells; assay type: cell-based; conditions: for neutrophil adherence blocking activity (in words) / inhibition of neutrophil adherence to endothelial cells: 0.5 mM; for neutrophil adherence blocking activity (in words): compared with FHA Ca
Experimental: Human umbilical vein endothelial cells (HUVEC, first passage, Clonetics, San Diego, Calif.) were subcultured at confluence into Terasaki tissue culture wells. After 24 hours, confluent monolayers were used for adherence assays. Monolayers were stimulated with 10 ng/ml TNF alpha (Boehringer Mannheim, Indianapolis, Ind.) at 37° C. for four hours. 30 μl of human neutrophils (10^6 /ml) were labeled with fluorescein by the method of Lo et al. (1991), J. Exp. Med. 173 1493-1500, and preincubated for 15 minutes at 37° C. with 20 μl of peptides (0.5 mM in HAP) or HAP (phosphate buffered saline containing 0.5 mg/ml human serum albumin, 3 mM glucose, and 0.3 U/ml aprotinin) as a control buffer. For some experiments, endothelial cells were pretreated from 10 minutes with Factor X or antibodies against Factor X receptor (EPR-1; Altieri et al. (1990), J. Immunol. 145, 246-253) 12H1 and 9D4 (obtained from Dr. D. Altieri, Scripps Research Institute, Lajolla, Calif.) and then washed. Neutrophils were allowed to adhere to the monolayer for 15 mins. at 37° C. and unbound cells were removed by submersion of the plate in PBS buffer. The number of adherent neutrophils was counted in a 40× microscope field and expressed as a percentage of adherence in control wells with neutrophils treated with HAP buffer alone. The mAb IB4 against CD18 (50 μg/ml; Merck Inc., Rahway, N.J.) served as a positive control.
(§1) The procedures for determining the neutrophil adherence to cultured endothelial cells and the transendothelial migration of neutrophils were identical with those of Example 9. Control values were the same as those shown in Example 9.

blood brain barrier = test: Rabbit meningitis model: CSF protein and lactate (blood brain barrier permeability); assay type: in vivo
Experimental: (§2) The rabbit model was performed according to an established protocol. Specific pathogen free, New Zealand white rabbits (2 kg; Hare Marland, Nutley, N.J.) were anesthetized with valium (2.5 mg/kg, subcutaneously, Hoffman-LaRoche, Nutley, N.J.), ketamine (35 mg/kg, intramuscularly, Aveco, Fort Dodge, Iowa) and xylazine (5 mg/kg, intramuscularly, Miles Laboratories, Shawnee, Kans.) and a helmet of dental acrylic was affixed to the calvarium. Twenty four hours later, the rabbits were anesthetized with ethyl carbamate (1.75 g/kg; Aldrich Chemical Co., Milwaukee, Wis.) and pentobarbital (15 mg/kg; Abbott Laboratories, Abbott Park, Ill.) and placed in a stereotaxic frame. A spinal needle was introduced into the cisterna magna and 300 μl of CSF was withdrawn. The animals were challenged intracisternally with 10^8 heat killed, unencapsulated pneumococcus strain R6 introduced in 200 μl of saline (time 0). One hour later, animals were treated with peptides dissolved in 1 ml of saline by intravenous injection into the right marginal ear vein. The concentration of FHA was 0.1 μM and that of the FHA Ia, Factor X II, and scrambled FHA II peptides was 10 μM. For the acetyl-FHA II, acetyl/amide-FHA II, dimer of FHA II and trimer of FHA II peptides, the concentration was 10^-3 μM. The concentration of FHA II is given in the results section. Samples of CSF were withdrawn at hourly intervals after pneumococcal inoculation and leukocyte density was measured using a cell counter (Coulter Electronics Inc., Hialeah, Fla.). CSF samples were centrifuged at 10,000×g for 5 minutes and the supernatant was stored at -70° C. until assayed for protein concentration using the bicinchoninic acid method (BCA Kit, Pierce Chemical Co., Rockford, Ill.) and for lactate concentration (Lactate Detection Kit, Sigma, St. Louis, Mo.). Statistically significant differences between treatments were determined by a one way analysis of variance test.
Loss of barrier function of the cerebral capillary endothelium during inflammation is reflected by an influx of serum proteins into the CSF. […] To examine if the peptides were able to ameliorate these measures of cerebral injury, CSF protein and lactate concentrations were measured hourly in peptide-treated and control animals (Table 10).
Leukocyte migration into the CSF in bacterial meningitis is associated with loss of barrier function of the cerebral capillary endothelium, resulting in influx of serum proteins into the CSF. To determine whether FHA peptides were able to prevent this leukocyte-dependent injury, protein concentrations in the CSF were measured throughout the course of inflammation in peptide-treated and control animals.

CD11b/CD18 = biological target: T1, CD11b/CD18 (Homo sapiens, UniProt P05107+P11215); test: Downmodulation of CD11b/CD18 on macrophages (binding of C3bi-coated erythrocytes); assay type: cell-based; conditions: 0.5 mM
T1 construct: C3bi-erythrocyte rosetting after spreading on peptide-coated wells
Experimental: Human monocytes were purified from buffy coats on Percoll gradients and cultured in 12.5% human serum in Teflon beakers. Macrophages were harvested from Teflon beakers after 6-8 days and suspended in HAP buffer. Terasaki wells were coated with 5 μl of peptides (0.5 mM) or anti-CD18 mAb IB4 (50 μg/ml). Control wells were coated with HAP. After 2 hours of incubation at RT, 5 μl of macrophages (5×10^5 /ml HAP) were added and allowed to spread for 45 mins. at 37° C. […] IgM-coated erythrocytes in buffer served as negative control. After washing, the number of erythrocytes bound per 100 leukocytes (adherence index) was quantitated visually under an inverted microscope.

leukocytes in CSF [2] = test: Rabbit meningitis model: leukocyte migration into CSF; assay type: in vivo; conditions: for leukocyte migration into CSF (in words): 0.1 μM peptide i.v.; for leukocyte density in CSF: 7 hours, 1 ml of 1 uM peptide i.v.
Experimental: as §2
The anti-inflammatory effects of the administered peptides were assessed in the rabbit model for meningitis by the procedures described in Example 10. The animals received 1 ml of 1 uM peptide intravenously. In a slight departure from the protocol described in Example 10, samples of blood were drawn from the left marginal ear vein 30 minutes after the administration of the peptides to determine peripheral leukocyte concentrations.

[3] = Stability in 50% rabbit plasma; assay type: in vitro ADME; conditions: 37° C.
Experimental: To determine the stability of the FHA II peptide, the unmodified or the acetylated-amidated peptide were incubated in 50% rabbit plasma at 37° C.

leukocytes in CSF [4] = test: Rat meningitis model (LOS): CSF leukocytosis; assay type: in vivo; conditions: 4 hours
Experimental: The experiments were performed according to established protocols (Wispelway et al., 1988, J. Clin. Invest., 82: 1339-1346). Purified Haemophilus influenzae type b strain DL42 lipooligosaccharide (LOS) was prepared for inoculation by sonication for 30 minutes, dilution to the desired concentration (20 ng/50 μl) in normal saline or PBS, and sonication for an additional 15 to 30 minutes just prior to use.
(§3) Briefly, anesthetized female Wistar rats were placed under a micromanipulator and inoculated intracisternally with a 25 gauge needle. After removal of 50 μl of CSF (without visible blood contamination), rats were inoculated intracisternally with 50 μl (20 ng) of LOS using a 1 ml syringe with a 25 gauge needle. Ten to fifteen minutes after inoculation with LOS, the rats were treated by intravenous administration of the test substance: a solution of an FHA peptide in PBS, a solution of a control peptide in PBS, or an equal volume of PBS alone.
(§4) Three hours after LOS inoculation, 5 μCi of ^125 I-radiolabelled albumin in 50 μl normal saline was administered intravenously. One hour later, CSF was collected via intracisternal puncture and blood samples were collected via intracardiac puncture. CSF leukocytosis was determined by manually counting white blood cells using a hemacytometer, and blood-brain barrier permeability was determined as the percent of radioactivity in whole blood that was present in the CSF. Blood samples were obtained immediately prior to inoculation, immediately prior to treatment, and at 4 hours post-inoculation for determination of peripheral white blood cell concentrations.

blood-brain barrier = test: Rat meningitis model (LOS): blood-brain barrier permeability; assay type: in vivo; conditions: for inhibition of blood-brain barrier permeability (in words): rat, in vivo
Experimental: as §3, §4

[5] = Peripheral white blood cells in rats; conditions: rat, in vivo
Experimental: as §4

neutrophils = test: Transendothelial migration of neutrophils; assay type: cell-based, human; conditions: for % Inhibition of TEM: peptides 0.01 mM
Experimental: Transendothelial migration of neutrophils was studied based on a method described by Muller et al. (1992), J. Exp. Med. 176: 819-828. Briefly, human neutrophils suspended in ice-cold Hanks balanced salt solution (HBSS) containing Ca^++ and Mg^++ (Sigma) were fluoresceinated by adding 3.3 μl/ml 5-(and 6-)carboxyfluorescein diacetate, succinimidyl ester (CFSE, Molecular Probes Inc., Oreg.). After incubation for 30 mins. on ice, neutrophils were washed twice in cold HBSS with Ca^++ and Mg^++ and resuspended in cold Medium 199 (M199, Sigma) to a final concentration of 10^6 /ml. Human umbilical vein endothelial cells were subcultured at confluence into 96-well tissue culture plates (Becton Dickinson Labware, Lincoln Park, N.J.) that were coated with hydrated collagen gel (Vitrogen; Collagen Corporation, Palo Alto, Calif.) and fibronectin. Endothelial cells were stimulated with 10 ng/ml TNF-alpha for 4 hours and washed three times with warm M199. Neutrophils (10^6 /ml) were preincubated with 0.01 mM of peptides or with 1 μM of native FHA in M199 for 5 mins. on ice before they were added in 100 μl aliquots to the endothelial cells. For positive control, neutrophils were pre-incubated with 25 μg/ml anti-CD18 mAb IB4. For negative control, neutrophils were treated with 25 μg/ml mAb W6/32 against HLA class I antigen (Dako, Carpinteria, Calif.). The cells were incubated for 1 hour at 37° C., 5% CO2. To terminate transmigration, the supernatant fluid was aspirated and the wells were filled with warm 1 mM EGTA (Sigma) in HBSS without Ca and Mg. The plates were covered with plate sealers (Dynatech, Alexandria, Va.) and centrifuged in an inverted position at 250 g for 3 mins. at room temperature. To remove residual non-transmigrated neutrophils from the endothelial cells, monolayers were washed twice with 200 μl of warm Hanks solution without Ca and Mg. Fluorescence was quantitated using a fluorescence counter (Millipore Cytofluor™ 2300). The percentage of transmigrated neutrophils was determined by comparing the amount of fluorescence of test wells with that measured in collagen- and fibronectin-coated wells without endothelial cells. […] Percent inhibition of transendothelial migration of neutrophils was calculated by comparing the number of transmigrated cells in wells containing neutrophils treated with peptide to neutrophils treated with M199 alone and arbitrarily set at 100% transendothelial migration (TEM).
as §1

cerebral infarct = test: Rat transient middle cerebral artery occlusion: infarct volume; assay type: in vivo; conditions: 2 hours MCAo; 50 nmol i.v. plus 150 nmol i.p. boluses; 48 hours
ciliated cells = conditions: cited from earlier work

T1 sequence (P05107 23-769, other chains not shown): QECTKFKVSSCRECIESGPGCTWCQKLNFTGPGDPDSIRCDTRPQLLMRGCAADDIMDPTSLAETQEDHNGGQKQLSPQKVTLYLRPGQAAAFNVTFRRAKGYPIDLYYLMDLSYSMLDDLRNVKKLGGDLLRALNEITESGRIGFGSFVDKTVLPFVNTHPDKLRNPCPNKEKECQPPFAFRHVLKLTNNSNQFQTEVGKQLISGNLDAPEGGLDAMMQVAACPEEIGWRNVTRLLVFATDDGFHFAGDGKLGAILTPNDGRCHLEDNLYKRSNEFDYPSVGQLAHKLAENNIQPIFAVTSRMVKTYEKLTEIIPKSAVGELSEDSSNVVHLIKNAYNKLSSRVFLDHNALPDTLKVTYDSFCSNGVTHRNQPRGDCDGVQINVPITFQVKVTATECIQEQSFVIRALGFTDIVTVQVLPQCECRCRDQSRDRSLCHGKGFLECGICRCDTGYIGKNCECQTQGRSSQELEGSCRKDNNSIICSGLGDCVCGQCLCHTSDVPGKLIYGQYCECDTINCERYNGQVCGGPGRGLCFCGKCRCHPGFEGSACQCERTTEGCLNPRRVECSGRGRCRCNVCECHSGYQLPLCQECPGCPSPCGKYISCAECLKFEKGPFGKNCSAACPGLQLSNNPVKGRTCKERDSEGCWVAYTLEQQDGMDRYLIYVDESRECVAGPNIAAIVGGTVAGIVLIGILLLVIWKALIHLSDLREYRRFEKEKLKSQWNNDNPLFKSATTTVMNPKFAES

OC[C@H]1O[C@@H](O[C@H]2[C@H](O)[C@@H](O)C(O)O[C@@H]2CO)[C@H](O)[C@@H](O)[C@H]1O (stereo partly drawn) [Lactose]
colonization of rabbit lung (B. pertussis): decrease colonization of rabbit lung

CC1(C)S[C@@H]2[C@H](NC(=O)Cc3ccccc3)C(=O)N2[C@H]1C(=O)O [penicillin]
bound to albumin (albumin): ~80%

AADPHQGVLAQGDIIMDAKG [FHA Cc]
neutrophil adherence blocking activity (in words) [1]: activity was detectable above background but was not statistically different from buffer alone | Total protein in CSF (blood brain barrier; 6 hours): 1.36 ± 0.16 mg/mL | Total protein in CSF (blood brain barrier; 7 hours): 1.90 ± 0.22 mg/mL | effect on CD11b/CD18 (in words) (CD11b/CD18): no significant effect

Ac-ETKEVDG-NH2 [Acetyl/Amide-FHA II]
interference with neutrophil adherence (in words) ([1]; peptides 0.5 mM): significantly enhanced the ability of peptide FHA II to block neutrophil adherence to endothelia | leukocytes in CSF (leukocytes in CSF [2]; 6 hours, 10 nmoles i.v.): 3011±684 cells/μl | protein influx into CSF and lactate generation (in words) (blood brain barrier; 10 μM peptides, 0.1 μM FHA): significantly reduced protein influx into the CSF and generation of lactate | concentration over time (in words) [3]: remained unchanged over 48 hours | Leukocytosis (CSF leukocyte concentration) (leukocytes in CSF [4]; 600 nmol i.v.): approximately 10,000 cells/ml | Leukocytosis (CSF leukocyte concentration) (leukocytes in CSF [4]; 600 nmol i.v., listed as ac/am FHA II): 10,500 ± 8523 cells/ml | inhibition of blood-brain barrier permeability (in words) (blood-brain barrier): not observed | neutropenia [5]: No neutropenia

Ac-VEEDTKG-NH2 [scrambled ac/am FHA II, VEEDTKG, reference compound]
Leukocytosis (CSF leukocyte concentration) (leukocytes in CSF [4]; 600 nmol i.v.): 14,287 ± 10,199 cells/ml

GTLLLRNDALTENGTVTISA [FHA Cd]
inhibition of neutrophil adherence to endothelial cells [1]: < 15% | % Inhibition of TEM (neutrophils): 6 ± 6% | leukocyte recruitment into CSF (in words) (leukocytes in CSF [2]; 1 μM peptide i.v.): no effect | Total protein in CSF (blood brain barrier; 6 hours): 1.71 ± 0.19 mg/mL | Total protein in CSF (blood brain barrier; 7 hours): 2.03 ± 0.57 mg/mL | effect on CD11b/CD18 (in words) (CD11b/CD18): no significant effect

IDVPQHGGAMRDLGIAQGKD [scrambled FHA Ca, reference compound]
Leukocytosis (CSF leukocyte concentration) (leukocytes in CSF [4]; 100 nmol i.v.): 20,700 ± 7,400 cells/ml

RADPHQGVLAQGDIIMDAKG [FHA Cb]
neutrophil adherence blocking activity (in words) [1]: activity was decreased by half | % Inhibition of TEM (neutrophils): 8 ± 9% | leukocyte migration into CSF (in words) (leukocytes in CSF [2]): ineffective | leukocyte density in CSF (leukocytes in CSF [2]): 2788±1022 cells/μl CSF | Total protein in CSF (blood brain barrier; 6 hours): 1.91 ± 0.24 mg/mL | Total protein in CSF (blood brain barrier; 7 hours): 2.28 ± 0.28 mg/mL | effect on CD11b/CD18 (in words) (CD11b/CD18): no significant effect

RGDPHQGVLAQGDIIMDAKG [FHA Ca]
concentration at which loss of activity (≤20% inhibition) occurred [1]: 1 µM | inhibition of neutrophil adherence to endothelial cells [1]: 47±7% | maximal inhibition of neutrophil attachment ([1]; concentration dependence): ~ 50% | concentration required for inhibition of transendothelial migration similar to native FHA (82%) (neutrophils): 10 µM | leukocyte migration into CSF (in words) (leukocytes in CSF [2]): significantly reduced leukocyte migration into the CSF | leukocyte density in CSF (leukocytes in CSF [2]): 2137±1498 cells/μl CSF | Total protein in CSF (blood brain barrier; 6 hours): 1.18 ± 0.39 mg/mL | Total protein in CSF (blood brain barrier; 7 hours): 1.69 ± 0.41 mg/mL | BBB permeability (blood-brain barrier; 100 nmol i.v., radioactivity in CSF of that in whole blood): 3.0% | inhibition of blood-brain barrier permeability (in words) (blood-brain barrier): dose dependent | infarct volume (cerebral infarct): approximately 25 % of the hemisphere | neutropenia [5]: No neutropenia

lactosamines
inhibition of adherence of B. pertussis to human ciliated cells (ciliated cells): Inhibition of adherence
